Measured values as given in patent US7786120B2, “Pyridones useful as inhibitors of kinases” (Vertex Pharmaceuticals Incorporated, priority 2005, dated 2010).

Tests used:
Assay type in all cases: biochemical
human Itk kinase = target: T1, human Itk kinase (Homo sapiens, UniProt Q08881); assay: Itk Inhibition Assay (radioactivity-based or spectrophotometric); conditions: inhibition of human Itk kinase
T1 sequence (Q08881 1-620): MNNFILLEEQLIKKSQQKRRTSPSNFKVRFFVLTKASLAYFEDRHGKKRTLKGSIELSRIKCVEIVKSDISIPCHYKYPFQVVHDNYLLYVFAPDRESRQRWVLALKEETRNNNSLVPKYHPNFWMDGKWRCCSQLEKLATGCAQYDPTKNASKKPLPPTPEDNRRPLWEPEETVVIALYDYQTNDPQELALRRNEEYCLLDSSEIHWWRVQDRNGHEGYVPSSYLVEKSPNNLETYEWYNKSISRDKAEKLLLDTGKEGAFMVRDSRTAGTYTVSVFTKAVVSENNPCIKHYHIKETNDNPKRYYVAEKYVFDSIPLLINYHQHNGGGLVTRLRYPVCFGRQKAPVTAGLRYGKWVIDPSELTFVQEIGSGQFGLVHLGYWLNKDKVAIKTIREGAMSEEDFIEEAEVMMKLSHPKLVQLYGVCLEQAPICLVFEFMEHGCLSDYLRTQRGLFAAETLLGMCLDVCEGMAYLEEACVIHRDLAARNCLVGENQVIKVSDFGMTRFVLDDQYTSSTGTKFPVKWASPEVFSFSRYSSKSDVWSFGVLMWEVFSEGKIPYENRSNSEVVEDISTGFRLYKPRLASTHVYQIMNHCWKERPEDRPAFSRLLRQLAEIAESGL
Experimental: The compounds of the present invention can be evaluated as inhibitors of human Itk kinase using either a radioactivity-based or a spectrophotometric assay. In general, compounds of the invention, including compounds in Table 1, are effective for the inhibition of Itk. Specifically, compounds I.1 to I.5 and compound I.7 have a Ki value of <1 μM and compounds I.6 and I.8 have a Ki value of >1 μM.
Assays were carried out in a mixture of 100 mM HEPES (pH 7.5), 10 mM MgCl2, 25 mM NaCl, 0.01% BSA and 1 mM DTT. Final substrate concentrations were 15 μM [γ-^33P]ATP (400 μCi ^33P ATP/μmol ATP, Amersham Pharmacia Biotech/Sigma Chemicals) and 2 μM peptide (SAM68 protein Δ332-443). Assays were carried out at 25° C. in the presence of 30 nM Itk. An assay stock buffer solution was prepared containing all of the reagents listed above, with the exception of ATP and the test compound of interest. 50 μL of the stock solution was placed in a 96 well plate followed by addition of 1.5 μL of DMSO stock containing serial dilutions of the test compound (typically starting from a final concentration of 15 μM with 2-fold serial dilutions) in duplicate (final DMSO concentration 1.5%). The plate was pre-incubated for 10 minutes at 25° C. and the reaction initiated by addition of 50 μL [γ-^33P]ATP (final concentration 15 μM).
The reaction was stopped after 10 minutes by the addition of 50 μL of a TCA/ATP mixture (20% TCA, 0.4 mM ATP). A Unifilter GF/C 96 well plate (Perkin Elmer Life Sciences, Cat no. 6005174) was pretreated with 5 μL Milli Q water prior to the addition of the entire reaction mixture (150 μL). […]
IC50 data were calculated from non-linear regression analysis of the initial rate data using the Prism software package (GraphPad Prism version 3.0cx for Macintosh, GraphPad Software, San Diego, Calif., USA). […]
Ki(app) data were calculated from non-linear regression analysis of the initial rate data using the Prism software package (GraphPad Prism version 3.0cx for Macintosh, GraphPad Software, San Diego, Calif., USA). […]

FLT-3 = target: T2, FLT-3 (Homo sapiens, UniProt P36888); assay: FLT-3 kinase inhibition (assays similar to the ones described)
T2 sequence (P36888 27-993): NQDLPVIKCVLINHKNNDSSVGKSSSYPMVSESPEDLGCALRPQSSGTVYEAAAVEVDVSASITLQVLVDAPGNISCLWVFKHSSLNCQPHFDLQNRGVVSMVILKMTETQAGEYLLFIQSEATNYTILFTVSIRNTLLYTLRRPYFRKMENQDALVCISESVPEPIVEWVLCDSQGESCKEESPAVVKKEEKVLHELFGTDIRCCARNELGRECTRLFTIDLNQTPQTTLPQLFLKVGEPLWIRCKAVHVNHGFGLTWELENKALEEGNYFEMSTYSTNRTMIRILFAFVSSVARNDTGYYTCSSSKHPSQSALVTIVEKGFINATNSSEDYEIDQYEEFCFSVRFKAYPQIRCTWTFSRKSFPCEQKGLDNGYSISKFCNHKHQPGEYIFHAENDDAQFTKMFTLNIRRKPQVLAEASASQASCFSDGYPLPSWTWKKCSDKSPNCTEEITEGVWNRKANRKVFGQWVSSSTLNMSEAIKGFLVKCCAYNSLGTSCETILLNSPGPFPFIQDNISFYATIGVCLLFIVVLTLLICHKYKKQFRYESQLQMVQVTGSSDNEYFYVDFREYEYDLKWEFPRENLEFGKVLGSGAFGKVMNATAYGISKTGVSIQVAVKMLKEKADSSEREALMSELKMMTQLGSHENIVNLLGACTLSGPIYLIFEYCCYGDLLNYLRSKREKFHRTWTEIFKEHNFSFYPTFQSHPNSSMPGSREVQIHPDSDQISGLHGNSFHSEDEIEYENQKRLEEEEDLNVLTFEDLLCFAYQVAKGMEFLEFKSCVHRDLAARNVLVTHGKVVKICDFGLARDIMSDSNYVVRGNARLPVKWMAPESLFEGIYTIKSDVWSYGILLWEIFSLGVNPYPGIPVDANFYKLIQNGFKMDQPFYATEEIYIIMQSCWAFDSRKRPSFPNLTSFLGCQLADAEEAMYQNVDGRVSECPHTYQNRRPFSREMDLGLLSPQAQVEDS
Experimental: (§1) Compound I.9 was tested in assays similar to the ones described herein and found to inhibit FLT-3, JAK2, and JAK3 kinases.

JAK2 = JAK2 (Homo sapiens, UniProt O60674); assay: JAK2 kinase inhibition (assays similar to the ones described)
Experimental: as §1

JAK3 = target: T3, JAK3 (Homo sapiens, UniProt P52333); assay: JAK3 kinase inhibition (assays similar to the ones described)
T3 sequence (P52333 1-1124): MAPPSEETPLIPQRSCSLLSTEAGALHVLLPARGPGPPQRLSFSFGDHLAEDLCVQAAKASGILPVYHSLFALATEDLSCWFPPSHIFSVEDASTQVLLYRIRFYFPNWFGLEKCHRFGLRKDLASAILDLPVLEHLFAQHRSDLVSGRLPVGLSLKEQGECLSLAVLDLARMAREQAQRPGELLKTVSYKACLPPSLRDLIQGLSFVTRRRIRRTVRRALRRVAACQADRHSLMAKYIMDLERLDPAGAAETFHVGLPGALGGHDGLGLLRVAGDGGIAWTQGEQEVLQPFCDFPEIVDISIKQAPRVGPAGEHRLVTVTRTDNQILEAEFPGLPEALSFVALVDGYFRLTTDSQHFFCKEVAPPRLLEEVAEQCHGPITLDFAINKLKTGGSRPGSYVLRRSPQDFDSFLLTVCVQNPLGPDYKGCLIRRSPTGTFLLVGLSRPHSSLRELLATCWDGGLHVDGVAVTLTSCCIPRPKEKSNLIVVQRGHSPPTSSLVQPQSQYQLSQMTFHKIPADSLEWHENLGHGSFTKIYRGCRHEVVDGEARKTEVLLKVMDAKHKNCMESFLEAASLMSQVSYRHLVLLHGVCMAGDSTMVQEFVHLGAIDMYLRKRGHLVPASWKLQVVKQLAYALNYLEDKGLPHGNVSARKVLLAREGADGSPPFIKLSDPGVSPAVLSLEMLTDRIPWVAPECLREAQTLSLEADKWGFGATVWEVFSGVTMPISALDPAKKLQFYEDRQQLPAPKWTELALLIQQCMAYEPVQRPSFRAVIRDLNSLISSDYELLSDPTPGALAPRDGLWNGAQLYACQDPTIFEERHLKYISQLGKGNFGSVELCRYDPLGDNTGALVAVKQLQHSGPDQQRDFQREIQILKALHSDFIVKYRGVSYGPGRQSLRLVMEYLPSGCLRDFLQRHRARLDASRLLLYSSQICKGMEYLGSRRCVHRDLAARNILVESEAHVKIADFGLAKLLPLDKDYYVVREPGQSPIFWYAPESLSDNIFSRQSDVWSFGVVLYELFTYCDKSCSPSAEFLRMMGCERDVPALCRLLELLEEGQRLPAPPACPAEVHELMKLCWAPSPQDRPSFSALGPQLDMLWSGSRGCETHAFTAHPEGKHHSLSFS
Experimental: as §1

JAK2, sequence (O60674 whole entry, species assumed): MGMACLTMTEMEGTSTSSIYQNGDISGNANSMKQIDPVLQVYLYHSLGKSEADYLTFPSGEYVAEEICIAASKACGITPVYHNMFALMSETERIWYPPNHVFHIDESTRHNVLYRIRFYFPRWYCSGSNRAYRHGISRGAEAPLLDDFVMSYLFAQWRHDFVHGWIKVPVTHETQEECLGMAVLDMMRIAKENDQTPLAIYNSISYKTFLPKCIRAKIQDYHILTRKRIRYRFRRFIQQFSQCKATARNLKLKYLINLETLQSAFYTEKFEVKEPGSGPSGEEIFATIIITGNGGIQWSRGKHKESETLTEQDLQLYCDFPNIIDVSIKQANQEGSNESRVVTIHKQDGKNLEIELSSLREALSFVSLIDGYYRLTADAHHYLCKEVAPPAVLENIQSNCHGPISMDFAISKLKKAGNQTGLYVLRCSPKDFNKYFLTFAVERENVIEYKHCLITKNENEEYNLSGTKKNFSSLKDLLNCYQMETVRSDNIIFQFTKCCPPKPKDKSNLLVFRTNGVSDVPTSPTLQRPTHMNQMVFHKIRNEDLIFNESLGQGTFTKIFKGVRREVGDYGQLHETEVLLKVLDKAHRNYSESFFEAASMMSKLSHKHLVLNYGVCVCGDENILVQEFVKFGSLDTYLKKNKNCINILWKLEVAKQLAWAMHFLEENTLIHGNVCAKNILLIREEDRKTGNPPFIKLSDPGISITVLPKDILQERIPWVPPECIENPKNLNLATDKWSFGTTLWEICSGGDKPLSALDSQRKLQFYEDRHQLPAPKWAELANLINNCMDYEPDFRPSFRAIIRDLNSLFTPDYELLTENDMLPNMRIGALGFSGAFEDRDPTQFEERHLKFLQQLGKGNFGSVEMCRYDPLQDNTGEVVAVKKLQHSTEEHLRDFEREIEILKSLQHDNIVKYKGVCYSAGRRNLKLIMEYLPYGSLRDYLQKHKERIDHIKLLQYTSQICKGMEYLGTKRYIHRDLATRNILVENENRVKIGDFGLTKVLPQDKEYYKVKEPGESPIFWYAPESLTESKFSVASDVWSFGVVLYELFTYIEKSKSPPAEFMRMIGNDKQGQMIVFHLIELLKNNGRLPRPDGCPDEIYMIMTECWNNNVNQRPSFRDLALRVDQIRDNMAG

SMILES	Ki (human Itk kinase)	inhibition of FLT-3 kinase (in words) (FLT-3)	inhibition of JAK2 kinase (in words) (JAK2)	inhibition of JAK3 kinase (in words) (JAK3)
CNc1cncc(-c2c[nH]c(=O)c(/C=C3\C(=O)Nc4ccccc43)c2)n1 [I.6, 3-((1,2-dihydro-5-(6-(methylamino)pyrazin-2-yl)-2-oxopyridin-3-yl)methylene)indolin-2-one]	> 1 µM	–	–	–
CNc1cncc(-c2c[nH]c(=O)c(/C=C/c3cc(CN4CCN(S(C)(=O)=O)CC4)ccc3[N+](=O)[O-])c2)n1 [I.7]	< 1 µM	–	–	–
CNc1cncc(-c2c[nH]c(=O)c(/C=C/c3cc(OC)ccc3[N+](=O)[O-])c2)n1 [I.8]	> 1 µM	–	–	–
O=c1[nH]cc(-c2ccccc2Cl)cc1/C=C/c1cnc2ccccn12 [I.9]	–	inhibit	inhibit	inhibit
